Columns and labels:
Bcl-2 protein = Bcl-2 protein (Homo sapiens (Human), UniProt P10415); test: Inhibition of Bcl-2 by the fluorescence polarisation technique; type: binding; details: fluorescence polarisation test; concentration that inhibits fluorescence polarisation by 50%; read-out: IC50 (nM) Bcl-2 FP
Experimental: The fluorescence polarisation tests were carried out on microplates (384 wells). […] After incubation for 2 hours, the fluorescence polarisation is measured.

[1] = tested on: RS4;11 leukaemia tumour line; test: In vitro cytotoxicity (Microculture Tetrazolium Assay, 48 hours); type: cell-based; details: Homo sapiens, RS4;11 cells, 48 hours exposure, MTT, concentration that inhibits cell viability by 50%, read-out: IC50 (nM) MTT RS4
Experimental: The cytotoxicity studies were carried out on the RS4;11 leukaemia tumour line.
The cells are distributed onto microplates and exposed to the test compounds for 48 hours.

[2] = tested on: cleaved form of caspase 3; test: Quantification of the cleaved form of caspase 3 in vivo (MSD ELISA, RS4;11 xenograft); design: species or system mice (SCID strain); details: oral treatment, RS4;11 xenograft in SCID mice
Experimental: The ability of the compounds of the invention to activate caspase 3 is evaluated in a xenograft model of RS4;11 leukaemia cells.
1×10^7 RS4;11 cells are grafted subcutaneously into immunosuppressed mice (SCID strain). 25 to 30 days after the graft, the animals are treated orally with the various compounds. After treatment, the tumour masses are recovered and lysed, and the cleaved (activated) form of caspase 3 is quantified in the tumour lysates.
The quantification is carried out using the “Meso Scale Discovery (MSD) ELISA platform” test, which specifically assays the cleaved form of caspase 3. It is expressed in the form of an activation factor corresponding to the ratio between the quantity of cleaved caspase 3 in the treated mice divided by the quantity of cleaved caspase 3 in the control mice.

Sequence of Bcl-2 protein (P10415 whole entry): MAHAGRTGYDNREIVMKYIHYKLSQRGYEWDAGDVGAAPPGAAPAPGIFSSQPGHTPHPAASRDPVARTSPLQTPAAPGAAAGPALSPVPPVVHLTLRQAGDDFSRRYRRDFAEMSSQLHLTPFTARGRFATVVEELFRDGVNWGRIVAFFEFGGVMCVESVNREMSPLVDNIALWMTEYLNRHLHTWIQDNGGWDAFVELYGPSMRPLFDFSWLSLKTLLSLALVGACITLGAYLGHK

Row | SMILES | IC50 (Bcl-2 protein) [nM] | IC50 [1] [nM] | Activation factor (versus control), cleaved caspase 3 MSD test in the tumours ([2]; 50 mg/kg) | Activation factor (versus control), cleaved caspase 3 MSD test in the tumours ([2]; 25 mg/kg)
1 | CCCCN(C(=O)c1cc(-c2cc3c(cc2C(=O)N2Cc4ccccc4C[C@H]2CN2CCOCC2)OCO3)n2c1CCCC2)c1ccc(O)cc1.Cl [Example 87, N-Butyl-N-(4-hydroxyphenyl)-3-{6-[((3S)-3-(4-morpholinylmethyl)-3,4-dihydro-2(1H)-isoquinolinyl)carbonyl]-1,3-benzodioxol-5-yl}-5,6,7,8-tetrahydro-1-indolizine carboxamide hydrochloride] | 27 | 121 | 18.3 (50 mg/kg) | –
2 | Cl.O=C(c1cc(-c2cc3c(cc2C(=O)N2Cc4ccccc4C[C@H]2CN2CCOCC2)OCO3)n2c1CCCC2)N(c1ccc(O)cc1)c1cccc(F)c1 [Example 122, N-(3-Fluorophenyl)-N-(4-hydroxyphenyl)-3-(6-{[(3S)-3-(morpholin-4-ylmethyl)-3,4-dihydroisoquinolin-2(1H)-yl]carbonyl}-1,3-benzdioxol-5-yl)-5,6,7,8-tetrahydroindolizine-1-carboxamide hydrochloride] | 16 | 43.5 | – | 17.4 (25 mg/kg)
3 | Cl.O=C(c1cc(-c2cc(Cl)ccc2C(=O)N2Cc3ccccc3C[C@H]2CN2CCOCC2)n2c1COCC2)N(c1ccccc1)c1ccc(O)cc1 [Example 78, 6-{5-Chloro-2-[((3S)-3-(4-morpholinylmethyl)-3,4-dihydro-2(1H)-isoquinolinyl)carbonyl]phenyl}-N-(4-hydroxyphenyl)-N-phenyl-3,4-dihydro-1H-pyrrolo[2,1-c][1,4]oxazine-8-carboxamide hydrochloride] | 31 | 101 | – | 10.4 (25 mg/kg)
4 | Cl.Cn1cc(N(C(=O)c2cc(-c3cc(Cl)ccc3C(=O)N3Cc4ccccc4C[C@H]3CN3CCOCC3)n3c2CCCC3)c2ccc(O)cc2)cn1 [Example 135, 3-(5-Chloro-2-{[(3S)-3-(morpholin-4-ylmethyl)-3,4-dihydroisoquinolin-2(1H)-yl]carbonyl}phenyl)-N-(4-hydroxyphenyl)-N-(1-methyl-1H-pyrazol-4-yl)-5,6,7,8-tetrahydroindolizine-1-carboxamide hydrochloride] | 6 | 37.4 | 60 (50 mg/kg) | –

From patent US9120791B2, “Indolizine compounds, a process for their preparation and pharmaceutical compositions containing them” (LES LABORATOIRES SERVIER, priority 2012, dated 2015)
